Laboratory results reported in publication PMC6017415, “Carbamates as Potential Prodrugs and a New Warhead for HDAC Inhibition” (Molecules : A Journal of Synthetic Chemistry and Natural …, 2018).
Where “and” joins values, the source holds several entries; their conditions need not be identical. Equal values may be shown once. Where a name gives a salt, the structure may show the parent alone.

Tests used:
HL60 cells = assay: Cell proliferation assay (CellTiter 96 AQueous) in HL60 cells; settings: Homo sapiens, HL-60, 72 h, read-out: GI50 (µM) ± SE HL60
Description: (§3) To further investigate the inhibition properties of the carbamates, we tested their antiproliferative activity on human promyelocytic leukemia cells (HL60) and on human histiocytic lymphoma cells (U937).
(§4) HL60 or U937 cells were seeded in 96-well tissue culture plates at a density of 5 × 10^4 cells per well. Cells were immediately incubated with inhibitors. As these cells already differentiate with 1% DMSO content, inhibitors were prepared as 200× stock solutions in DMSO. In all cases, inhibitors were compared to DMSO vehicle only, and three replicates per concentration were used. Growth inhibition was determined using the CellTiter 96® AQueous Non-Radioactive Cell Proliferation Assay according to the manufacturer’s instructions. Briefly, 5 × 10^4 of HL60 or U937 cells per well were treated with DMSO stocks of the respective inhibitors or with DMSO in 100 µL cell culture medium and incubated for 72 h at 37 °C and 5% CO2 in transparent 96-well microtiter plates (PAA). Subsequently, 20 µL of the detection reagent (containing a tetrazolium salt) was added to each well and incubated for 4 more hours under the same conditions. After this time, absorption was measured at a wavelength of 490 nm (BMG Polarstar, BMG Labtech, Ortenberg, Germany).

recombinant human HDAC1 = target: T1, recombinant human HDAC1 (Homo sapiens, UniProt Q13547); assay: HDAC1 in vitro fluorescence-based inhibition assay (ZMAL substrate); type: biochemical; settings: for IC50: read-out: IC50 (µM) ± SE HDAC1
T1 construct: purchased BPS Biosciences (San Diego, CA, USA)
Text: (§1) In order to investigate a potential subtype selectivity among different HDAC classes, we first tested them against the recombinant histone deacetylases HDAC1 (class I) and HDAC6 (class llb). […] To further address this issue, we also tested the respective compounds against the class l histone deacetylase HDAC8 (also see Table 1).
(§2) Recombinant human HDAC1 and 6 were purchased from BPS Biosciences (San Diego, CA, USA), and recombinant human HDAC8 was produced as described before. Inhibition tests of human HDAC1 and 6 were conducted using carboxybenzyl acetyllysine aminomethylcoumarin (ZMAL) as a substrate. […] For testing of HDAC8, the commercial Fluor de Lys drug discovery kit (BML-KI178) (Enzo Life Sciences, Lausen, Switzerland) was used according to the manufacturer’s instruction. Briefly, the test compound, Fluor de Lys-HDAC8 substrate (50 μM), and enzyme were incubated for 90 min at 37 °C with subsequent addition of 50 μL of Developer II (BML-KI176) (Enzo Life Sciences, Lausen, Switzerland) and further incubation for 45 min at 30 °C. In both assays, trichostatin A (2 μM) was used to stop the reaction. Fluorescence in both cases was measured in a plate reader (BMG Polarstar, BMG Labtech, Ortenberg, Germany) with excitation at λ = 390 nm and emission at λ = 460 nm.

[1] = tested on: acetylation of histone H3 and tubulin in HL60 cells; assay: Western blot of acetylation levels of histone H3 and tubulin in HL60 cells; type: cell-based, human; settings: 4 h
Description: An inhibition of deacetylation in this experiment is expected to lead to hyperacetylation of the respective proteins. Besides histone H3, acetylated tubulin was chosen as a target protein. As tubulin is only accepted as a target by HDAC 6 [21], this allows us to explore subtype selectivity in a cellular setting (see Figure 4).
HL60 cells were treated with the inhibitors in the given concentrations. Cells treated with dimethyl sulfoxide as a vehicle were used as controls. After an incubation time of 4 h, cells were transferred into 50-mL Falcon tubes and centrifuged (300× g, 5 min). The supernatant was removed, and the cells were washed with PBS, before they were transferred to 1.7-mL reaction tubes. The cells were lysated with Bio-Rad loading buffer, and the cell suspension was heated to 95 °C for 5 min. The proteins then were separated using a 15% SDS-polyacrylamide gel electrophoresis and transferred to a polyvinylidene fluoride (PVDF) membrane (Roti-PVDF, Carl Roth, Karlsruhe, Germany). Acetylation levels were detected using an anti-acetyl histone H3 antibody (Millipore, Billerica, MA, USA) and an anti-acetyl-α-tubulin antibody (Sigma Aldrich, St. Louis, MO, USA). An antibody directed against GAPDH (Sigma Aldrich) was used as a loading control.

recombinant human HDAC6 = target: T2, recombinant human HDAC6 (Homo sapiens, UniProt Q9UBN7); assay: HDAC6 in vitro fluorescence-based inhibition assay (ZMAL substrate); type: biochemical; settings: recombinant human HDAC6, ZMAL 10.5 µM, 90 min 37 °C; for IC50: read-out: IC50 (µM) ± SE HDAC6
T2 construct: purchased BPS Biosciences (San Diego, CA, USA)
T2 sequence (Q9UBN7 1-1215): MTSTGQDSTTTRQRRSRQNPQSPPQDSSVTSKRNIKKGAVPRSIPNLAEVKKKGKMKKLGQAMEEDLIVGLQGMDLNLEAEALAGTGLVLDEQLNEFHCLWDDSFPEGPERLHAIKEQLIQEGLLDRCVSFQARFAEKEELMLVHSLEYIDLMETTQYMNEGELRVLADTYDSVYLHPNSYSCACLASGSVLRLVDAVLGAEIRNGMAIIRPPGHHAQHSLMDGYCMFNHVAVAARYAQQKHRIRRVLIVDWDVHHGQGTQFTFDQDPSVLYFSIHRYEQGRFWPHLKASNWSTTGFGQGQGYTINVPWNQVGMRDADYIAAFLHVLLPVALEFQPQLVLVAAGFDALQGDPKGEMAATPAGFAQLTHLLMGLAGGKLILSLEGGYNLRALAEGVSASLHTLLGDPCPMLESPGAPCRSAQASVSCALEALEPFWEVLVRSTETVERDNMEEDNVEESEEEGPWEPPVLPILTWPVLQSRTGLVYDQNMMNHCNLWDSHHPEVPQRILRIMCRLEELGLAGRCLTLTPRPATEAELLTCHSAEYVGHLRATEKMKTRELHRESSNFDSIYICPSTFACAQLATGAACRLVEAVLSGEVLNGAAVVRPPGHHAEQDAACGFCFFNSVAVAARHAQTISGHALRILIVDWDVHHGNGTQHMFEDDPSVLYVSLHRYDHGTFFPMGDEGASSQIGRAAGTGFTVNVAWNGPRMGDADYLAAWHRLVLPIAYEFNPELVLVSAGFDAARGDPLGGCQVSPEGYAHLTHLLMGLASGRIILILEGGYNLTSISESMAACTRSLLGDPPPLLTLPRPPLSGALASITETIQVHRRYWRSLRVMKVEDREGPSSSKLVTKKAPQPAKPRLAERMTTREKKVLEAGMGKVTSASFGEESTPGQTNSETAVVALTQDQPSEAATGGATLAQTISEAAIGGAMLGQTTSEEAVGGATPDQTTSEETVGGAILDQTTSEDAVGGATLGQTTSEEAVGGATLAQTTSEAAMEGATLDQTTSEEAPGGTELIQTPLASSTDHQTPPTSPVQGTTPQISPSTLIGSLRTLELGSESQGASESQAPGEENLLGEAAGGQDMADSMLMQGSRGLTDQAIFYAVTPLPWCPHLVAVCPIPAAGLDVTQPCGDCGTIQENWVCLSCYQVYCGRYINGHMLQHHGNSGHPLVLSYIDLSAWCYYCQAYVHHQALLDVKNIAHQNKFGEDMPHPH
Text: as §1, §2

recombinant human HDAC8 = target: T3, recombinant human HDAC8 (Homo sapiens, UniProt Q9BY41); assay: HDAC8 in vitro inhibition assay (Fluor de Lys kit); type: biochemical; settings: for inhibition at 100 µM: read-out: Inhibition (%) @ Conc. (µM) HDAC8
T3 construct: made in house
T3 sequence (Q9BY41 1-377): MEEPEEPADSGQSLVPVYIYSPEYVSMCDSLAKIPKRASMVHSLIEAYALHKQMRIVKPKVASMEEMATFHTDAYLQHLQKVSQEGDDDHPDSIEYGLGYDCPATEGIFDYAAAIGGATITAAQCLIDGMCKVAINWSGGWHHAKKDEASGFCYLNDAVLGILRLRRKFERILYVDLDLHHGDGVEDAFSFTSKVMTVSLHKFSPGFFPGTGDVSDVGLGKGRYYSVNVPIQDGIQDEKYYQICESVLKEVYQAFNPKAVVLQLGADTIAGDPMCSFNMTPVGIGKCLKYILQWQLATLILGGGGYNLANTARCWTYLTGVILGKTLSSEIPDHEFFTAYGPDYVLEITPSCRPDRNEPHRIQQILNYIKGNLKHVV
Text: as §1, §2

U937 cells = assay: Cell proliferation assay (CellTiter 96 AQueous) in U937 cells; settings: Homo sapiens, U-937, 72 h, read-out: GI50 (µM) ± SE U937
Description: as §3, §4

[2] = tested on: HDAC activity in U937 cells; assay: Cellular HDAC inhibition assay (MAL substrate) in U937 cells; settings: Homo sapiens, U-937, read-out: IC50 (µM) ± SE cellular HDAC inhibition U937
Description: (§5) Therefore, we decided to adapt this assay for a cellular setting allowing us to verify the previous results by assessing HDAC inhibition in the human leukemia cell lines HL60 and U937 (see the right side of Table 2).
(§6) After 2 h of incubation, 50 µL substrate solution were added, containing tert-butyloxycarbonyl acetyl lysine aminomethylcoumarin (MAL) as a substrate (300 µM final assay concentration) and IGEPAL CA-630 (final concentration 0.05%). After 2 more hours of incubation at 37 °C and 5% CO2, 50 µL stop solution consisting of 0.5 µL TSA (100 µM) and 5 µL trypsin solution (10 mg/mL) in 44.5 µL cell buffer were added. This mixture was incubated for a further 20 min at 37 °C. Fluorescence was measured in a plate reader (BMG Polarstar) with excitation at λ = 390 nm and emission at λ = 460 nm.

[3] = tested on: HDAC activity in HL60 cells; assay: Cellular HDAC inhibition assay (MAL substrate) in HL60 cells; settings: Homo sapiens, HL-60, read-out: IC50 (µM) ± SE cellular HDAC inhibition HL60
Description: as §5, §6

[4] = Stability analysis under in vitro assay conditions, HPLC quantification of released hydroxamic acid; type: physicochemical; settings: in vitro assay conditions without substrate, HDAC1 present, compound 2.4 mM, 90 min 37 °C
Description: In order to address the question if the newly-synthesized carbamates are hydrolyzed during the assay procedure or if they really serve as HDAC inhibitors themselves, stability stress tests were performed. For this purpose, the compounds were subjected to the standard in vitro assay conditions, but without adding a substrate as, no enzyme conversion should be observed in these experiments. After 90 min of incubation at 37 °C, the release of SAHA of the different samples was detected and quantified via HPLC. This led to the finding that a release of SAHA could be detected for all samples (see Table 1). […] This means that the question if the carbamate scaffold represents a new warhead for HDAC inhibition or if the degradation to SAHA is solely responsible for the observed inhibitory effects cannot be resolved completely.
To test the stability of Compound 9 under assay conditions, we also performed stability analysis with HPLC quantification. This experiment led to the finding that 8.7% of the carbamate 9 is degraded under release of bufexamac during incubation time. This fraction of released bufexamac may contribute to in vitro and cellular HDAC inhibition, but the observed selectivity profile of the carbamate in the in vitro assays clearly implies an intrinsic HDAC activity of carbamates.
For stability tests, the carbamates were subjected to the described in vitro assay conditions (see above) without adding the substrate ZMAL and without the second incubation step with trypsin. Compounds were applied in a final concentration of 2.4 mM, and recombinant HDAC1 was used as the enzyme. After 90 min of incubation at 37 °C, the release of SAHA was detected via HPLC on an Agilent 1200 series device. The employed analytical column was a Kinetex 5u XB-C18, 100 Å, 250 × 4.6 mm (Phenomenex, Torrance, CA, USA) with the ReproSil 100 C18 5-µm precolumn (Jasco, Oklahoma City, OK, USA). The following conditions were applied: Eluent A: H2O containing 0.05% TFA, Eluent B: acetonitrile containing 0.05% TFA, linear gradient conditions (0–4 min, A = 90%, B = 10%; 4–29 min, linear increase to 100% of B; 29–31 min, B = 100%; 31.5–40 min, A = 10%, B = 90%); injection volume: 30 µL, flow rate: 1 mL/min; detection wavelength: λ = 254 nm. For evaluation, the ChemStation software from Agilent was used. To quantify the released amount of SAHA and bufexamac, calibration curves were plotted by incubating DMSO stocks of these compounds under in vitro assay conditions with final compound concentrations ranging from 1 µM–200 µM. HPLC analysis with the conditions described above led to the following equations: y = 13.935x − 27.918 for SAHA and y = 0.6099x + 1.1301 for bufexamac.

[5] = recombinant human HDAC1, ZMAL 10.5 µM, 90 min 37 °C

T1 sequence (Q13547 whole entry): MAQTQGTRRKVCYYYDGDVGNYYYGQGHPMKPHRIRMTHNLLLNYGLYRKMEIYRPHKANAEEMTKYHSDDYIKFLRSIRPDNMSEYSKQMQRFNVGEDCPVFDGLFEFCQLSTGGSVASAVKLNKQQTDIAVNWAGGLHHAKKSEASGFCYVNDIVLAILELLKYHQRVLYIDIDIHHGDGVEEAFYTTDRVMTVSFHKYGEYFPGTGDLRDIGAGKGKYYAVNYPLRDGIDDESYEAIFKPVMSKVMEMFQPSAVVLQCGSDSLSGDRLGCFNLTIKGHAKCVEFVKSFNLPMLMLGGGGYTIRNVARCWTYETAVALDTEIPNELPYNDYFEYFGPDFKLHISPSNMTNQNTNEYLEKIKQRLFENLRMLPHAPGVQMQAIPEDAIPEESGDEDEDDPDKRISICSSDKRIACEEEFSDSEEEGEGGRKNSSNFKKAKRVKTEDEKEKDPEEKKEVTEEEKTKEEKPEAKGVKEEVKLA

SMILES | GI50 (HL60 cells) [µM] | IC50 (recombinant human HDAC1; [5]) | acetylation levels of H3 [1] | tubulin acetylation [1] | IC50 (recombinant human HDAC6) | inhibition at 100 µM (recombinant human HDAC8) [%] | IC50 (µM) ± SE HDAC1 (recombinant human HDAC1; [5]) | GI50 (U937 cells) [µM] | IC50 [2] [µM] | IC50 [3] [µM] | IC50 (µM) ± SE HDAC6 (recombinant human HDAC6) | Release of SAHA (%) [4] [%] | IC50 (recombinant human HDAC8; recombinant human HDAC8, Fluor de Lys-HDAC8 substrate 50 µM, 90 min 37 °C, read-out: IC50 (µM) ± SE HDAC8) | effect on H3 and tubulin acetylation levels [1] | inhibition at 300 µM (recombinant human HDAC1; at 300 µM, read-out: Inhibition (%) @ Concentration (µM) HDAC1) [%]
CCCCOc1ccc(CC(=O)NO)cc1 [Bufexamac (8), bufexamac, reference compound] | 31.8 ± 0.57 | 31.7 ± 4.75 µM | not affected | hyperacetylation of tubulin | 2.24 ± 0.05 µM | – | – | – | – | – | – | – | – | – | –
CC(C)NC(=O)ONC(=O)CCCCCCC(=O)Nc1ccccc1 [Compound 2a, [(8-Anilino-8-oxo-octanoyl)amino]N-isopropylcarbamate] | 1.02 ± 0.09 | 1.52 ± 0.02 µM | – | – | 2.11 ± 0.02 µM | 35 | low micromolar range | 0.49 ± 0.09 | 5.3 ± 0.59 | 3.25 ± 0.02 | low micromolar range | 2.2 | – | – | –
O=C(CCCCCCC(=O)Nc1ccccc1)NOC(=O)NCc1ccccc1 [Compound 2b, [(8-Anilino-8-oxo-octanoyl)amino]N-benzylcarbamate] | 1.06 ± 0.11 | 0.74 ± 0.01 µM | – | – | 0.637 ± 0.002 µM | 52 | – | 0.68 ± 0.09 | 3.02 ± 0.03 | 1.89 ± 0.04 | – | 0.5 | – | – | –
CCNC(=O)ONC(=O)CCCCCCC(=O)Nc1ccccc1 [Compound 2c, [(8-Anilino-8-oxo-octanoyl)amino]N-ethylcarbamate] | 0.99 ± 0.17 | 0.79 ± 0.01 µM | – | – | 0.58 ± 0.01 µM | 68 | – | 0.88 ± 0.13 | 2.07 ± 0.04 | 1.42 ± 0.53 | – | 14.5 | – | – | –
O=C(CCCCCCC(=O)Nc1ccccc1)NOC(=O)Nc1ccccc1 [Compound 2d, [(8-Anilino-8-oxo-octanoyl)amino]N-phenylcarbamate] | 0.58 ± 0.05 | 0.132 ± 0.001 µM | – | – | 0.187 ± 0.007 µM | – | – | 0.42 ± 0.13 | 0.71 ± 0.002 | 0.69 ± 0.004 | – | 4.6 | 6.5 µM and 6.49 µM | in the same range as SAHA | –
O=C(CCCCCCC(=O)Nc1ccccc1)NOC(=O)N1CCNCC1 [Compound 7, [(8-Anilino-8-oxo-octanoyl)amino]piperazin-4-ium-1-carboxylate trifluoroacetate] | 25.9 ± 1.96 | 5.1 µM and 5.09 µM | – | – | 3.7 µM and 3.71 µM | – | – | – | – | 22.4 ± 0.28 | – | 3.7 | – | least effective substance | –
CCCCOc1ccc(CC(=O)NOC(=O)NC(C)C)cc1 [Compound 9] | 33.99 ± 0.06 | – | not affected | hyperacetylation of tubulin | 13.7 ± 0.16 µM | – | – | – | – | – | – | – | – | – | 49
O=C(CCCCCCC(=O)Nc1ccccc1)NO [SAHA (1), N-hydroxy-N′-phenyloctanediamide, reference compound] | 0.54 ± 0.03 | – | – | – | – | – | – | 0.43 ± 0.09 | – | – | – | – | – | – | –
